Measured values: US20100070184A1, “METHOD FOR D[…] HIV TO PROTEASE INHIBITOR TREATMENT” (MONOGRAM BIOSCIENCES, INC., priority 2006, published 2010)

System: HIV-1 from the patient plasma sample
Assay: PHENOSENSE HIV phenotypic assay, tipranavir IC50 fold change vs NL4-3 reference strain
Format: cell-based
Settings: for MEAN tipranavir FC / MEDIAN tipranavir FC: 1411 patient samples
Experimental: In one embodiment, the phenotypic analysis is performed using PHENOSENSE™ (ViroLogic Inc., South San Francisco, Calif.). See Petropoulos et al., 2000, Antimicrob. Agents Chemother. 44:920-928; U.S. Pat. Nos. 5,837,464 and 6,242,187. PHENOSENSE™ is a phenotypic assay that achieves the benefits of phenotypic testing and overcomes the drawbacks of previous assays. Because the assay has been automated, PHENOSENSE™ offers higher throughput under controlled conditions. The result is an assay that accurately defines the susceptibility profile of a patient's HIV isolates to all currently available antiretroviral drugs, and delivers results directly to the physician within about 10 to about 15 days of sample receipt. PHENOSENSE™ is accurate and can obtain results with only one round of viral replication, thereby avoiding selection of subpopulations of virus. The results are quantitative, measuring varying degrees of drug susceptibility, and sensitive—the test can be performed on blood specimens with a viral load of about 500 copies/mL and can detect minority populations of some drug-resistant virus at concentrations of 10% or less of total viral population. Furthermore, the results are reproducible and can vary by less than about 1.4-2.5 fold, depending on the drug, in about 95% of the assays performed.
A resistance test vector (“RTV”) can then be constructed by incorporating the amplified viral gene sequences into a replication defective viral vector by using any method known in the art of incorporating gene sequences into a vector. In one embodiment, restrictions enzymes and conventional cloning methods are used. See Maniatis et al., 1989, Molecular Cloning: A Laboratory Manual, Cold Spring Harbor Laboratory, NY and Ausubel et al., 1989, Current Protocols in Molecular Biology, Greene Publishing Associates and Wiley Interscience, NY. In some embodiments, ApaI and PinAI restriction enzymes are used. Preferably, the replication defective viral vector is the indicator gene viral vector (“IGVV”). In some embodiments, the viral vector contains a means for detecting replication of the RTV. Preferably, the viral vector contains a luciferase expression cassette.
The assay can be performed by first co-transfecting host cells with RTV DNA and a plasmid that expresses the envelope proteins of another retrovirus, for example, amphotropic murine leukemia virus (MLV). Following transfection, virus particles can be harvested and used to infect fresh target cells. The completion of a single round of viral replication can be detected by the means for detecting replication contained in the vector. In one embodiment, the completion of a single round of viral replication results in the production of luciferase. Serial concentrations of anti-viral agents can be added at either the transfection step or the infection step.
Susceptibility to the anti-viral agent can be measured by comparing the replication of the vector in the presence and absence of the anti-viral agent. For example, susceptibility to the anti-viral agent can be measured by comparing the luciferase activity in the presence and absence of the anti-viral agent. Susceptible viruses would produce low levels of luciferase activity in the presence of anti-viral agents, whereas viruses with reduced susceptibility would produce higher levels of luciferase activity.
The phenotypic assay was conducted using the PHENOSENSE™ (Monogram Biosciences, Inc, South San Francisco, Calif.) HIV assay (Petropoulos et al., 2000, Antimicrob. Agents Chemother. 44:920-928; U.S. Pat. Nos. 5,837,464 and 6,242,187, and International Patent Application No. PCT/US06/05512). Plasma samples were collected from HIV-1-infected patients. IC50 values for tipranavir were obtained for the HIV-1 from the patient sample. This was compared to the IC50 for tipranavir against the NL4-3 (GenBank Accession No. AF324493) reference viral strain. […]

[1] = Kohlbrenner TPV mutation score 0
[2] = Kohlbrenner TPV mutation score 0, 4492 samples
[3] = Kohlbrenner TPV mutation score 1
[4] = Kohlbrenner TPV mutation score 1, 4492 samples
[5] = Kohlbrenner TPV mutation score 2
[6] = Kohlbrenner TPV mutation score 2, 4492 samples
[7] = Kohlbrenner TPV mutation score 3
[8] = Kohlbrenner TPV mutation score 3, 4492 samples
[9] = Kohlbrenner TPV mutation score 4
[10] = Kohlbrenner TPV mutation score 4, 4492 samples
[11] = Kohlbrenner TPV mutation score 5
[12] = Kohlbrenner TPV mutation score 5, 4492 samples
[13] = Kohlbrenner TPV mutation score 6
[14] = Kohlbrenner TPV mutation score 6, 4492 samples
[15] = Kohlbrenner TPV mutation score 7
[16] = Kohlbrenner TPV mutation score 7, 4492 samples
[17] = Kohlbrenner TPV mutation score 8-9
[18] = Kohlbrenner TPV mutation score 8, 4492 samples
[19] = Kohlbrenner TPV mutation score 9, 4492 samples
[20] = adjusted mutation score 3, training data with gag (n = 1916)
[21] = adjusted mutation score 3, validation data with gag (n = 1916)
[22] = adjusted mutation score 3.5, training data with gag (n = 1916)
[23] = adjusted mutation score 3.5, validation data with gag (n = 1916)
[24] = adjusted mutation score 4, training data with gag (n = 1916)
[25] = adjusted mutation score 4, validation data with gag (n = 1916)
[26] = adjusted mutation score 4.5, training data with gag (n = 1916)
[27] = adjusted mutation score 4.5, validation data with gag (n = 1916)
[28] = adjusted mutation score 5, training data with gag (n = 1916)
[29] = adjusted mutation score 5, validation data with gag (n = 1916)
[30] = adjusted mutation score 5.5, training data with gag (n = 1916)
[31] = adjusted mutation score 5.5, validation data with gag (n = 1916)
[32] = adjusted mutation score 6, training data with gag (n = 1916)
[33] = adjusted mutation score 6, validation data with gag (n = 1916)
[34] = adjusted mutation score 6.5, training data with gag (n = 1916)
[35] = adjusted mutation score 6.5, validation data with gag (n = 1916)
[36] = adjusted mutation score <3, training data with gag (n = 1916)
[37] = adjusted mutation score <3, validation data with gag (n = 1916)
[38] = adjusted mutation score >=7, training data with gag (n = 1916)
[39] = adjusted mutation score >=7, validation data with gag (n = 1916)
[40] = base mutation score 0, validation data (n = 2246)
[41] = base mutation score 1, validation data (n = 2246)
[42] = base mutation score 2, validation data (n = 2246)
[43] = base mutation score 3, validation data (n = 2246)
[44] = base mutation score 4, validation data (n = 2246)
[45] = base mutation score 5, validation data (n = 2246)
[46] = base mutation score 6, validation data (n = 2246)
[47] = base mutation score 7, validation data (n = 2246)
[48] = base mutation score 8, validation data (n = 2246)
[49] = base mutation score 9, validation data (n = 2246)
[50] = samples with 3 TPV mutations (Kohlbrenner score), 4492 samples

## CCC[C@@]1(CCc2ccccc2)CC(O)=C([C@H](CC)c2cccc(NS(=O)(=O)c3ccc(C(F)(F)F)cn3)c2)C(=O)O1 [TPV, tipranavir]
[1]
  MEAN tipranavir FC: 0.8
  MEDIAN tipranavir FC: 0.7
[2]
  Mean FC: 0.8
  Median FC: 0.7
[3]
  MEAN tipranavir FC: 1.0
  MEDIAN tipranavir FC: 0.8
[4]
  Mean FC: 1.1
  Median FC: 0.9
[5]
  MEAN tipranavir FC: 1.5
  MEDIAN tipranavir FC: 1.1
[6]
  Mean FC: 1.6
  Median FC: 1.1
[7]
  MEAN tipranavir FC: 3.1
  MEDIAN tipranavir FC: 1.6
[8]
  Mean FC: 3.1
  Median FC: 1.7
[9]
  MEAN tipranavir FC: 6.1
  MEDIAN tipranavir FC: 3.0
[10]
  Mean FC: 5.8
  Median FC: 2.9
[11]
  MEAN tipranavir FC: 11
  MEDIAN tipranavir FC: 5.7
[12]
  Mean FC: 10
  Median FC: 5.5
[13]
  MEAN tipranavir FC: 16
  MEDIAN tipranavir FC: 8.8
[14]
  Mean FC: 17
  Median FC: 10.7
[15]
  MEAN tipranavir FC: 32
  MEDIAN tipranavir FC: 12
[16]
  Mean FC: 24
  Median FC: 16
[17]
  MEAN tipranavir FC: 44
  MEDIAN tipranavir FC: 24
[18]
  Mean FC: 30
  Median FC: 31
[19]
  Mean FC: 42
  Median FC: 53
[20]
  mean TPV FC: 2.3
  median TPV FC: 1.5
[21]
  mean TPV FC: 1.8
  median TPV FC: 1.4
[22]
  mean TPV FC: 3.2
  median TPV FC: 1.5
[23]
  mean TPV FC: 2.3
  median TPV FC: 1.5
[24]
  mean TPV FC: 2.5
  median TPV FC: 2.0
[25]
  mean TPV FC: 2.6
  median TPV FC: 2.0
[26]
  mean TPV FC: 3.1
  median TPV FC: 2.2
[27]
  mean TPV FC: 3.5
  median TPV FC: 2.4
[28]
  mean TPV FC: 4.0
  median TPV FC: 2.8
[29]
  mean TPV FC: 4.4
  median TPV FC: 2.8
[30]
  mean TPV FC: 5.1
  median TPV FC: 2.4
[31]
  mean TPV FC: 5.2
  median TPV FC: 3.2
[32]
  mean TPV FC: 7.2
  median TPV FC: 4.9
[33]
  mean TPV FC: 8.6
  median TPV FC: 4.5
[34]
  mean TPV FC: 10.0
  median TPV FC: 6.3
[35]
  mean TPV FC: 12.6
  median TPV FC: 7.4
[36]
  mean TPV FC: 1.1
  median TPV FC: 0.9
[37]
  mean TPV FC: 1.1
  median TPV FC: 0.9
[38]
  mean TPV FC: 19.7
  median TPV FC: 13.4
[39]
  mean TPV FC: 20.1
  median TPV FC: 12.5
[40]
  mean TPV FC: 0.8
  median TPV FC: 0.7
[41]
  mean TPV FC: 1.1
  median TPV FC: 0.9
[42]
  mean TPV FC: 1.7
  median TPV FC: 1.2
[43]
  mean TPV FC: 3.4
  median TPV FC: 1.8
[44]
  mean TPV FC: 6.4
  median TPV FC: 3.2
[45]
  mean TPV FC: 10.7
  median TPV FC: 5.7
[46]
  mean TPV FC: 18
  median TPV FC: 11.7
[47]
  mean TPV FC: 24
  median TPV FC: 19
[48]
  mean TPV FC: 31
  median TPV FC: 33
[49]
  mean TPV FC: 41
  median TPV FC: 41
[50]
  samples with TPV FC greater than 2-fold: 44%
  samples with TPV FC greater than 4-fold: 19%
